Measurements taken from patent publication US5668133A, “Ophthalmic compositions comprising emedastine and methods for their use” (priority 1995, dated 1997).

Assays:
[1] = tested on: histamine-induced vascular permeability in guinea pig conjunctiva; assay: histamine-induced vascular permeability in guinea pig conjunctiva, topical ocular pretreatment; assay type: in vivo, guinea pig (Male Dunkin Hartley)
Procedure: The topical ocular antihistaminic effect of emedastine difumarate was assessed in a model of histamine induced vascular permeability in guinea pig conjunctiva. The potency of emedastine difumarate in this model was then compared with those of reference antihistamines.
Male Dunkin Hartley Viral Antibody Free outbred guinea pigs (Charles River Labs, Portage, Mich.), weighing approximately 250-350 grams (6/group) were injected intravenously (i.v.) via the marginal ear vein with 1.0 mL of Evans Blue dye (1.0 mg/mL). Forty-five (45) minutes post dye injection, 20 μL of test compound or saline vehicle was applied topically to one eye of each experimental animal. […] Responses were quantitated as described by Yanni et al. in Int. Arch. Allergy Immunol., 101:102-106 (1993). Response scores from the treated groups were then compared with scores obtained in the saline-treated group using Dunnett's t test (Dunnett C. W., "A multiple comparison procedure for comparing treatments with a control." J. Am. Stat. Assoc. 50:1096-1121(1955)). Regression analysis was used to determine relative potency (Bliss, C. and E. Gjorgy. In Vitamin Methods, Vol. 2, pp. 445-610, Academic Press, Inc., New York, 1951.).

[2] = tested on: allergic conjunctivitis; conditions: without the addition of a vasoconstrictor; cited from earlier work
[3] = as compared to systemic activity; cited from earlier work
[4] = 1 min pretreatment, relative to emedastine difumarate = 1.0, (95% Confidence Limits)
[5] = 30 min pretreatment, relative to emedastine difumarate = 1.0, (95% Confidence limits)
[6] = 1 min pretreatment, 0.001 wt %, ketotifen/pheniramine experiment (NaCl 276 ± 10)
[7] = 1 min pretreatment, 0.01 wt %, ketotifen/pheniramine experiment (NaCl 276 ± 10)
[8] = 1 min pretreatment, 0.1 wt %, ketotifen/pheniramine experiment (NaCl 276 ± 10)

## c1ccc(CN(CC2=NCCN2)c2ccccc2)cc1 [Antazoline, reference compound]
[1]; 1 min pretreatment, 0.0001 wt %, antazoline experiment (NaCl 285 ± 19)
  Wheal Area × Intensity: 244 ± 14
[1]; 1 min pretreatment, 0.001 wt %, antazoline experiment (NaCl 285 ± 19)
  Wheal Area × Intensity: 178 ± 42
[1]; 1 min pretreatment, 0.01 wt %, antazoline experiment (NaCl 285 ± 19)
  Wheal Area × Intensity: 115 ± 6
[1]; [4]
  Potency: 0.060
[1]; 30 min pretreatment, 0.01 wt %, antazoline experiment (NaCl 287 ± 20)
  Wheal Area × Intensity (x ± S.D.): 205 ± 61
[1]; 30 min pretreatment, 0.1 wt %, antazoline experiment (NaCl 287 ± 20)
  Wheal Area × Intensity (x ± S.D.): 145 ± 26
[1]; 30 min pretreatment, 1.0 wt %, antazoline experiment (NaCl 287 ± 20)
  Wheal Area × Intensity (x ± S.D.): 91 ± 27
[1]; [5]
  Potency: ~0.00017

## CN(C)CCC(c1ccc(Br)cc1)c1ccccn1 (stereo not shown) [Brompheniramine, reference compound]
[1]; 30 min pretreatment, 0.0001 wt %, brompheniramine experiment (NaCl 219 ± 20)
  Wheal Area × Intensity (X ± S.D.): 167 ± 26
[1]; 30 min pretreatment, 0.001 wt %, brompheniramine experiment (NaCl 219 ± 20)
  Wheal Area × Intensity (X ± S.D.): 92 ± 44
[1]; 30 min pretreatment, 0.01 wt %, brompheniramine experiment (NaCl 219 ± 20)
  Wheal Area × Intensity (x ± S.D.): 5 ± 8
[1]; [5]
  Potency: 0.14 (0.078-0.263)

## CN(C)CCC(c1ccc(Cl)cc1)c1ccccn1 (stereo not shown) [Chlorpheniramine, reference compound]
[1]; 30 min pretreatment, 0.0001 wt %, chlorpheniramine experiment (NaCl 217 ± 35)
  Wheal Area × Intensity (X ± S.D.): 161 ± 57
[1]; 30 min pretreatment, 0.001 wt %, chlorpheniramine experiment (NaCl 217 ± 35)
  Wheal Area × Intensity (X ± S.D.): 76 ± 22
[1]; 30 min pretreatment, 0.01 wt %, chlorpheniramine experiment (NaCl 217 ± 35)
  Wheal Area × Intensity (x ± S.D.): 9 ± 12
[1]; [5]
  Potency: 0.13 (0.056-0.295)

## CN1CCC[C@@H]1CCO[C@](C)(c1ccccc1)c1ccc(Cl)cc1 [Clemastine, reference compound]
[1]; 30 min pretreatment, 0.00001 wt %, clemastine experiment (NaCl 350 ± 31)
  Wheal Area × Intensity (X ± S.D.): 283 ± 37
[1]; 30 min pretreatment, 0.0001 wt %, clemastine experiment (NaCl 350 ± 31)
  Wheal Area × Intensity (X ± S.D.): 131 ± 36
[1]; 30 min pretreatment, 0.001 wt %, clemastine experiment (NaCl 350 ± 31)
  Wheal Area × Intensity (X ± S.D.): 65 ± 28
[1]; 30 min pretreatment, 0.01 wt %, clemastine experiment (NaCl 350 ± 31)
  Wheal Area × Intensity (x ± S.D.): 18 ± 8

## CN1CCC(=C2c3ccccc3CC(=O)c3sccc32)CC1 [Ketotifen, reference compound]
[1]; 1 min pretreatment, 0.0001 wt %, ketotifen/pheniramine experiment (NaCl 276 ± 10)
  Wheal Area × Intensity: 210 ± 11
[1]; [6]
  Wheal Area × Intensity: 138 ± 21
[1]; [7]
  Wheal Area × Intensity: 89 ± 22
[1]; [8]
  Wheal Area × Intensity: 33 ± 22
[1]; [4]
  Potency: 0.288
[1]; 30 min pretreatment, 0.0000007 wt %, ketotifen experiment (NaCl 214 ± 41)
  Wheal Area × Intensity (x ± S.D.): 157 ± 66
[1]; 30 min pretreatment, 0.000007 wt %, ketotifen experiment (NaCl 214 ± 41)
  Wheal Area × Intensity (x ± S.D.): 108 ± 52
[1]; 30 min pretreatment, 0.00007 wt %, ketotifen experiment (NaCl 214 ± 41)
  Wheal Area × Intensity (x ± S.D.): 61 ± 26
[1]; topical, 0.5 h
  Potency: 3.72 (0.973-11.892)

## C[C@@H]1CN([C@H]2CC[C@](C#N)(c3ccc(F)cc3)CC2)CC[C@]1(C(=O)O)c1ccccc1 [Levocabastine, reference compound]
[2]
  clinical activity in patients with allergic conjunctivitis: exhibits clinical activity
[1]; 0.05%, topically 1 minute before histamine injection
  attenuation of histamine-induced vascular permeability response: failed to attenuate significantly
[1]; 1 min pretreatment, 0.05 wt %, levocabastine experiment (NaCl 336 ± 78)
  Wheal Area × Intensity: 231 ± 58
[1]; 30 min pretreatment, 0.0005 wt %, levocabastine/pheniramine experiment (NaCl 252 ± 30)
  Wheal Area × Intensity (x ± S.D.): 189 ± 66
[1]; 30 min pretreatment, 0.005 wt %, levocabastine/pheniramine experiment (NaCl 252 ± 30)
  Wheal Area × Intensity (x ± S.D.): 116 ± 67
[1]; 30 min pretreatment, 0.05 wt %, levocabastine/pheniramine experiment (NaCl 252 ± 30)
  Wheal Area × Intensity (x ± S.D.): 56 ± 41
[1]; [5]
  Potency: 0.01 (0.006-0.038)

## CN(C)CCC(c1ccccc1)c1ccccn1 (stereo not shown) [Pheniramine, reference compound]
[1]; [6]
  Wheal Area × Intensity: 181 ± 16
[1]; [7]
  Wheal Area × Intensity: 87 ± 40
[1]; [8]
  Wheal Area × Intensity: 59 ± 23
[1]; [4]
  Potency: 0.130
[1]; 30 min pretreatment, 0.003 wt %, levocabastine/pheniramine experiment (NaCl 252 ± 30)
  Wheal Area × Intensity (x ± S.D.): 175 ± 53
[1]; 30 min pretreatment, 0.03 wt %, levocabastine/pheniramine experiment (NaCl 252 ± 30)
  Wheal Area × Intensity (x ± S.D.): 122 ± 33
[1]; [5]
  Potency: ~0.0028

## COc1ccc(CCN2CCC(Nc3nc4ccccc4n3Cc3ccc(F)cc3)CC2)cc1 [astemizole]
[3]
  local ocular activity: greatly reduced local ocular activity

## CCOC(=O)N1CCC(=C2c3ccc(Cl)cc3CCc3cccnc32)CC1 [loratadine]
[3]
  local ocular activity: greatly reduced local ocular activity

## CC(C)(C)c1ccc(C(O)CCCN2CCC(C(O)(c3ccccc3)c3ccccc3)CC2)cc1 (stereo not shown) [terfenadine]
[3]
  local ocular activity: little or no local ocular activity
